Measured values taken from paper PMC12435834, “The GLYT1 inhibitor bitopertin mitigates erythroid PPIX production and liver disease in erythroid protoporphyria” (The Journal of Clinical Investigation, 2025).

Legend:
GLYT1 [1] = target: T1, GLYT1 (Rattus norvegicus, UniProt P28572); test: ex vivo 3H-glycine uptake by peripheral blood cells of orally dosed rats vs free plasma concentration
T1 construct: gene Slc6a9
T1 sequence (P28572 1-638): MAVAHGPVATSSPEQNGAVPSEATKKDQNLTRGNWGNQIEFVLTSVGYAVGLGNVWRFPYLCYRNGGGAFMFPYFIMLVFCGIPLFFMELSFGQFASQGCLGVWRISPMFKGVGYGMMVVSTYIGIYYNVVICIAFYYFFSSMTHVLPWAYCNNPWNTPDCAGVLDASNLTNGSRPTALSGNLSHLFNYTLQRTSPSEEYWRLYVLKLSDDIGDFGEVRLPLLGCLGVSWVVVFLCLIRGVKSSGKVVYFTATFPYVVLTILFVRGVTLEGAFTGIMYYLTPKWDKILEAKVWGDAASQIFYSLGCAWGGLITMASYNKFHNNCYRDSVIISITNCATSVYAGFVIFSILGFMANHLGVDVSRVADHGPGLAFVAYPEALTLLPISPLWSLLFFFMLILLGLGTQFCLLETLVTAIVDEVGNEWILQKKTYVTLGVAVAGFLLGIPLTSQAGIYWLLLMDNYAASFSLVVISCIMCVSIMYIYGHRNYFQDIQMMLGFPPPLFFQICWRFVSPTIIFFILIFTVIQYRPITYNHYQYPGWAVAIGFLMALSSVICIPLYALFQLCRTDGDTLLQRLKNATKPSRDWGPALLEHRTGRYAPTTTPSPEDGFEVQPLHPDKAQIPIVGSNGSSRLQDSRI

GLYT1 [2] = target: T2, GLYT1 (Mus musculus, UniProt P28571); test: ex vivo 3H-glycine uptake by peripheral blood cells of orally dosed mice vs free plasma concentration
T2 construct: gene Slc6a9
T2 sequence (P28571 1-692): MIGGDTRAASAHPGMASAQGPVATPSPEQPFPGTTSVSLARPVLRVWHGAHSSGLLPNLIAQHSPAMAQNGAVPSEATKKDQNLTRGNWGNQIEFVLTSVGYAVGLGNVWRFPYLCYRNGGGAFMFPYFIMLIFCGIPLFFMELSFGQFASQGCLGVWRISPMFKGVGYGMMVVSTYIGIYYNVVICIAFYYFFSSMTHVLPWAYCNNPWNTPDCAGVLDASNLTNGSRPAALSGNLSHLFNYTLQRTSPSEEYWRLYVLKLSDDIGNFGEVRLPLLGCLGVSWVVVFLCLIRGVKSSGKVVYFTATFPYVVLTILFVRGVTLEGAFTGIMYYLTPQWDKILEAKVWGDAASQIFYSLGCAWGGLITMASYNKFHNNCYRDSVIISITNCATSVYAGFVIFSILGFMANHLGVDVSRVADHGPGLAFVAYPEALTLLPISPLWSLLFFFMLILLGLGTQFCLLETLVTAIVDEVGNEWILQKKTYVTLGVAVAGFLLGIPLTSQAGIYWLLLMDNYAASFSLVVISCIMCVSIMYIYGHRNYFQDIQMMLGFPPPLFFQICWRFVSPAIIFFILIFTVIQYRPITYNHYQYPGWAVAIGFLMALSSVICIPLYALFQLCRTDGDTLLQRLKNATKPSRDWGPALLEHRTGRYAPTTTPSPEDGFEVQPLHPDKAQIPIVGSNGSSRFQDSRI

`C[C@H](Oc1ccc(S(C)(=O)=O)cc1C(=O)N1CCN(c2ncc(C(F)(F)F)cc2F)CC1)C(F)(F)F` [bitopertin, [4-(3-fluoro-5-trifluoromethylpyridin-2-yl)piperazin-1-yl][5-methanesulfonyl-2-((S)-2,2,2-trifluoro-1-methylethoxy)phenyl]methanone] was tested, and the EC50 (GLYT1 [1]) was 2 nM and the EC50 (GLYT1 [2]) was 1.2 nM.
